Results published in patent US8187373B2, “Printing inks for offset and/or high printing containing NIR absorbers and NIR absorbers soluble in offset and/or high printing inks” (BASF SE, priority 2004, dated 2012).

Columns and labels:
[1] = Extinction of a thin layer of printing varnish containing NIR absorber (absorption spectrum 400-1000 nm); format: physicochemical; details: 1.0% by weight NIR absorber
Method: Two conventional varnishes for the preparation of offset printing inks were used for the test. Varnishes are prepared formulations comprising binder and solvent, but as yet without colorant. In this way, it is possible to study the behavior of the NIR absorber also spectroscopically without interference by the colorant.
A varnish for the preparation of heatset inks comprising about 45% by weight of a low-aromatics mineral oil (boiling range from 240 to 270° C.), about 45% by weight of a rosin-modified phenol resin and about 10% by weight of an alkyd resin was used, as well as a varnish for the preparation of sheet-fed offset inks comprising about 45% by weight of a low-aromatics mineral oil (boiling range from 260 to 290° C.), about 45% by weight of a rosin-modified phenol resin and about 10% by weight of linseed oil.
Furthermore, a thin layer of above liquids was produced and was investigated spectroscopically. For this purpose, the above liquids were diluted 1:5 with dichloromethane, and the resulting solution was applied to a microscope slide by means of a knife coater so that, after evaporation of the dichloromethane, a layer of about 2 μm thick remained. An absorption spectrum (400-1000 nm) of this layer was then recorded after 2 hours.

[2] = Testing of the NIR absorbers in yellow heatset offset printing ink, printed on paper; format: physicochemical; details: 0.5% by weight in commercial yellow heatset offset printing ink
Method: In each case 0.5% by weight of the absorber A1 or A2 not according to the invention was added to a commercial yellow heatset offset printing ink, and the mixtures were thoroughly stirred.
Samples of the inks obtained were printed on paper.
The procedure was as in the comparative example, except that in each case 0.5% by weight of the novel NIR absorber B2 or B4 was used.

| SMILES | extinction E at 810 nm [1] | dissolution of NIR absorber in the offset ink [2] |
| --- | --- | --- |
| CCN1/C(=C/C=C2\CCC(/C=C/C3=[N+](CC)c4ccccc4C3(C)C)=C2Cl)C(C)(C)c2ccccc21 [Compound A2] | < 0.01 | did not dissolve |
| CCN1/C(=C/C=C2\CCC(/C=C/C3=[N+](CC)c4ccccc4C3(C)C)=C2Cl)C(C)(C)c2ccccc21 [Compound B4] | 0.83 | dissolved completely |
